From ChEMBL document CHEMBL5150017, “Mechanism of Action and Structure-Activity Relationship of α-Conotoxin Mr1.1 at the Human α9α10 Nicotinic Acetylcholine Receptor” (J Med Chem, 2022)
Active and inactive are the calls of the source. The rule behind the calls is not given here. Positions of bridges follow the written chain, without caps; N, C: chain ends. Non-standard residues stand in square brackets, D forms with d. Residues, ends and D or L forms follow the SMILES beside them. ξ: configuration not given here. Cit = NC(=O)NCCC[C@H](N)C(=O)O; Dap = NC[C@H](N)C(=O)O; ξDab = NCCC(N)C(=O)O; ξDap = NCC(N)C(=O)O

Target: Neuronal acetylcholine receptor; alpha9/alpha10 (Homo sapiens) (UniProt Q9UGM1+Q9GZZ6)
Test: Antagonist activity at human alpha9alpha10 nAChR expressed in Xenopus laevis oocytes assessed as inhibition of ACh-induced current amplitude at -80 mV holding potential at 100 nM by two-electrode voltage clamp method
Type: cell-based
Details: Oocyte

Row | Compound | inhibition (filed as antagonist) | inhibition
1 | CC[C@H](C)[C@@H]1NC(=O)[C@H](CC(=O)O)NC(=O)[C@@H]2CCCN2C(=O)[C@H](CC(N)=O)NC(=O)[C@H](CC(N)=O)NC(=O)[C@H](C(C)C)NC(=O)[C@H](CO)NC(=O)[C@@H]2CSSC[C@H](NC(=O)CN)C(=O)N[C@@H](CSSC[C@@H](C(N)=O)NC1=O)C(=O)N[C@@H](CCCNC(=N)N)C(=O)N[C@@H](Cc1cnc[nH]1)C(=O)N1CCC[C@H]1C(=O)N[C@@H](C)C(=O)N2 (H-GCCRHPACSVNNPDIC-NH2; disulfide 2-8, 3-16) | > 85% | 
2 | CC[C@H](C)[C@@H]1NC(=O)[C@H](CC(=O)O)NC(=O)[C@@H]2CCCN2C(=O)[C@H](CC(N)=O)NC(=O)[C@H](CC(N)=O)NC(=O)[C@H](CC(=O)O)NC(=O)[C@H](CO)NC(=O)[C@@H]2CSSC[C@H](NC(=O)CN)C(=O)N[C@@H](CSSC[C@@H](C(N)=O)NC1=O)C(=O)N[C@@H](CO)C(=O)N[C@@H](Cc1cnc[nH]1)C(=O)N1CCC[C@H]1C(=O)N[C@@H](C)C(=O)N2 (H-GCCSHPACSDNNPDIC-NH2; disulfide 2-8, 3-16) |  | < 5%
3 | CC[C@H](C)[C@@H]1NC(=O)[C@H](CC(=O)O)NC(=O)[C@@H]2CCCN2C(=O)[C@H](CC(N)=O)NC(=O)[C@H](CC(N)=O)NC(=O)[C@H](CCCCN)NC(=O)[C@H](CO)NC(=O)[C@@H]2CSSC[C@H](NC(=O)CN)C(=O)N[C@@H](CSSC[C@@H](C(N)=O)NC1=O)C(=O)N[C@@H](CO)C(=O)N[C@@H](Cc1cnc[nH]1)C(=O)N1CCC[C@H]1C(=O)N[C@@H](C)C(=O)N2 (H-GCCSHPACSKNNPDIC-NH2; disulfide 2-8, 3-16) |  | < 5%
4 | CC[C@H](C)[C@@H]1NC(=O)[C@H](CC(=O)O)NC(=O)[C@@H]2CCCN2C(=O)[C@H](CC(N)=O)NC(=O)[C@H](CC(N)=O)NC(=O)[C@H](CCCNC(=N)N)NC(=O)[C@H](CO)NC(=O)[C@@H]2CSSC[C@H](NC(=O)CN)C(=O)N[C@@H](CSSC[C@@H](C(N)=O)NC1=O)C(=O)N[C@@H](CO)C(=O)N[C@@H](Cc1cnc[nH]1)C(=O)N1CCC[C@H]1C(=O)N[C@@H](C)C(=O)N2 (H-GCCSHPACSRNNPDIC-NH2; disulfide 2-8, 3-16) | 60% | 
5 | CC[C@H](C)[C@@H]1NC(=O)[C@H](CC(=O)O)NC(=O)[C@@H]2CCCN2C(=O)[C@H](CC(N)=O)NC(=O)[C@H](CC(N)=O)NC(=O)[C@H](C(C)C)NC(=O)[C@H](CO)NC(=O)[C@@H]2CSSC[C@H](NC(=O)CN)C(=O)N[C@@H](CSSC[C@@H](C(=O)N[C@@H](CC(C)C)C(N)=O)NC1=O)C(=O)N[C@@H](CO)C(=O)N[C@@H](Cc1cnc[nH]1)C(=O)N1CCC[C@H]1C(=O)N[C@@H](C)C(=O)N2 (H-GCCSHPACSVNNPDICL-NH2; disulfide 2-8, 3-16) |  | 15%
6 | CC[C@H](C)[C@@H]1NC(=O)[C@H](CC(=O)O)NC(=O)[C@@H]2CCCN2C(=O)[C@H](CC(N)=O)NC(=O)[C@H](CC(N)=O)NC(=O)[C@H](C(C)C)NC(=O)[C@H](CO)NC(=O)[C@@H]2CSSC[C@H](NC(=O)CN)C(=O)N[C@@H](CSSC[C@@H](C(=O)N[C@@H](CCCNC(=N)N)C(N)=O)NC1=O)C(=O)N[C@@H](CO)C(=O)N[C@@H](Cc1cnc[nH]1)C(=O)N1CCC[C@H]1C(=O)N[C@@H](C)C(=O)N2 (H-GCCSHPACSVNNPDICR-NH2; disulfide 2-8, 3-16) | 60% | 
7 | CC[C@H](C)[C@@H]1NC(=O)[C@H](CC(=O)O)NC(=O)[C@@H]2CCCN2C(=O)[C@H](CC(N)=O)NC(=O)[C@H](CC(N)=O)NC(=O)[C@H](C(C)C)NC(=O)[C@H](CO)NC(=O)[C@@H]2CSSC[C@H](NC(=O)CN)C(=O)N[C@@H](CSSC[C@@H](C(=O)N[C@@H](Cc3ccc(O)cc3)C(N)=O)NC1=O)C(=O)N[C@@H](CO)C(=O)N[C@@H](Cc1cnc[nH]1)C(=O)N1CCC[C@H]1C(=O)N[C@@H](C)C(=O)N2 (H-GCCSHPACSVNNPDICY-NH2; disulfide 2-8, 3-16) |  | 15%
8 | CC[C@H](C)[C@@H]1NC(=O)[C@H](CC(=O)O)NC(=O)[C@@H]2CCCN2C(=O)[C@H](CC(N)=O)NC(=O)[C@H](CC(N)=O)NC(=O)[C@H](CCCNC(N)=O)NC(=O)[C@H](CO)NC(=O)[C@@H]2CSSC[C@H](NC(=O)CN)C(=O)N[C@@H](CSSC[C@@H](C(N)=O)NC1=O)C(=O)N[C@@H](CO)C(=O)N[C@@H](Cc1cnc[nH]1)C(=O)N1CCC[C@H]1C(=O)N[C@@H](C)C(=O)N2 (H-GCCSHPACS[Cit]NNPDIC-NH2; disulfide 2-8, 3-16) |  | < 5%
9 | CC[C@H](C)[C@@H]1NC(=O)[C@H](CC(=O)O)NC(=O)[C@@H]2CCCN2C(=O)[C@H](CC(N)=O)NC(=O)[C@H](CC(N)=O)NC(=O)[C@H](CN)NC(=O)[C@H](CO)NC(=O)[C@@H]2CSSC[C@H](NC(=O)CN)C(=O)N[C@@H](CSSC[C@@H](C(N)=O)NC1=O)C(=O)N[C@@H](CO)C(=O)N[C@@H](Cc1c[nH]cn1)C(=O)N1CCC[C@H]1C(=O)N[C@@H](C)C(=O)N2 (H-GCCSHPACS[Dap]NNPDIC-NH2; disulfide 2-8, 3-16) | Active | 
10 | CC[C@H](C)[C@@H]1NC(=O)[C@H](CC(=O)O)NC(=O)[C@@H]2CCCN2C(=O)[C@H](CC(N)=O)NC(=O)[C@H](CC(N)=O)NC(=O)C(CCN)NC(=O)[C@H](CO)NC(=O)[C@@H]2CSSC[C@H](NC(=O)CN)C(=O)N[C@@H](CSSC[C@@H](C(N)=O)NC1=O)C(=O)N[C@@H](CO)C(=O)N[C@@H](Cc1cnc[nH]1)C(=O)N1CCC[C@H]1C(=O)N[C@@H](C)C(=O)N2 (stereo not given in full) (H-GCCSHPACS[ξDab]NNPDIC-NH2; disulfide 2-8, 3-16) | Active | 35%
11 | CC[C@H](C)[C@@H]1NC(=O)[C@H](CC(=O)O)NC(=O)[C@@H]2CCCN2C(=O)[C@H](CC(N)=O)NC(=O)[C@H](CC(N)=O)NC(=O)C(CN)NC(=O)[C@H](CO)NC(=O)[C@@H]2CSSC[C@H](NC(=O)CN)C(=O)N[C@@H](CSSC[C@@H](C(N)=O)NC1=O)C(=O)N[C@@H](CO)C(=O)N[C@@H](Cc1cnc[nH]1)C(=O)N1CCC[C@H]1C(=O)N[C@@H](C)C(=O)N2 (stereo not given in full) (H-GCCSHPACS[ξDap]NNPDIC-NH2; disulfide 2-8, 3-16) | > 90% | 
12 | CC[C@H](C)[C@@H]1NC(=O)[C@H](CC(=O)O)NC(=O)[C@@H]2CCCN2C(=O)[C@H](CC(N)=O)NC(=O)[C@H](CC(N)=O)NC(=O)[C@H](C(C)C)NC(=O)[C@H](Cc2ccc(O)cc2)NC(=O)[C@@H]2CSSC[C@H](NC(=O)CN)C(=O)N[C@@H](CSSC[C@@H](C(N)=O)NC1=O)C(=O)N[C@@H](CO)C(=O)N[C@@H](Cc1cnc[nH]1)C(=O)N1CCC[C@H]1C(=O)N[C@@H](C)C(=O)N2 (H-GCCSHPACYVNNPDIC-NH2; disulfide 2-8, 3-16) |  | 5%
13 | CC[C@H](C)[C@@H]1NC(=O)[C@H](CC(=O)O)NC(=O)[C@@H]2CCCN2C(=O)[C@H](CC(N)=O)NC(=O)[C@H](CC(N)=O)NC(=O)[C@H](C(C)C)NC(=O)[C@H](CN)NC(=O)[C@@H]2CSSC[C@H](NC(=O)CN)C(=O)N[C@@H](CSSC[C@@H](C(N)=O)NC1=O)C(=O)N[C@@H](CO)C(=O)N[C@@H](Cc1c[nH]cn1)C(=O)N1CCC[C@H]1C(=O)N[C@@H](C)C(=O)N2 (H-GCCSHPAC[Dap]VNNPDIC-NH2; disulfide 2-8, 3-16) | Active | 
14 | CC[C@H](C)[C@@H]1NC(=O)[C@H](CC(=O)O)NC(=O)[C@@H]2CCCN2C(=O)[C@H](CC(N)=O)NC(=O)[C@H](CC(N)=O)NC(=O)[C@H](C(C)C)NC(=O)C(CCN)NC(=O)[C@@H]2CSSC[C@H](NC(=O)CN)C(=O)N[C@@H](CSSC[C@@H](C(N)=O)NC1=O)C(=O)N[C@@H](CO)C(=O)N[C@@H](Cc1cnc[nH]1)C(=O)N1CCC[C@H]1C(=O)N[C@@H](C)C(=O)N2 (stereo not given in full) (H-GCCSHPAC[ξDab]VNNPDIC-NH2; disulfide 2-8, 3-16) |  | 15%
15 | CC[C@H](C)[C@@H]1NC(=O)[C@H](CC(=O)O)NC(=O)[C@@H]2CCCN2C(=O)[C@H](CC(N)=O)NC(=O)[C@H](CC(N)=O)NC(=O)[C@H](C(C)C)NC(=O)C(CN)NC(=O)[C@@H]2CSSC[C@H](NC(=O)CN)C(=O)N[C@@H](CSSC[C@@H](C(N)=O)NC1=O)C(=O)N[C@@H](CO)C(=O)N[C@@H](Cc1cnc[nH]1)C(=O)N1CCC[C@H]1C(=O)N[C@@H](C)C(=O)N2 (stereo not given in full) (H-GCCSHPAC[ξDap]VNNPDIC-NH2; disulfide 2-8, 3-16) | 80% | 
16 | CC[C@H](C)[C@@H]1NC(=O)[C@H](CC(=O)O)NC(=O)[C@@H]2CCCN2C(=O)[C@H](CC(N)=O)NC(=O)[C@H](CC(N)=O)NC(=O)[C@H](C(C)C)NC(=O)[C@H](CO)NC(=O)[C@@H]2CSSC[C@H](NC(=O)CN)C(=O)N[C@@H](CSSC[C@@H](C(N)=O)NC1=O)C(=O)N[C@@H](CO)C(=O)N[C@@H](CCCNC(=N)N)C(=O)N1CCC[C@H]1C(=O)N[C@@H](C)C(=O)N2 (H-GCCSRPACSVNNPDIC-NH2; disulfide 2-8, 3-16) |  | 10%
17 | CC[C@H](C)[C@@H]1NC(=O)[C@H](CC(=O)O)NC(=O)[C@@H]2CCCN2C(=O)[C@H](CC(N)=O)NC(=O)[C@H](CC(N)=O)NC(=O)[C@H](C(C)C)NC(=O)[C@H](CO)NC(=O)[C@@H]2CSSC[C@H](NC(=O)CN)C(=O)N[C@@H](CSSC[C@@H](C(N)=O)NC1=O)C(=O)N[C@@H]([C@@H](C)O)C(=O)N[C@@H](Cc1cnc[nH]1)C(=O)N1CCC[C@H]1C(=O)N[C@@H](C)C(=O)N2 (H-GCCTHPACSVNNPDIC-NH2; disulfide 2-8, 3-16) |  | 10%
18 | CC[C@H](C)[C@@H]1NC(=O)[C@H](CC(=O)O)NC(=O)[C@@H]2CCCN2C(=O)[C@H](CC(N)=O)NC(=O)[C@H](CC(N)=O)NC(=O)[C@H](C(C)C)NC(=O)[C@H](CO)NC(=O)[C@@H]2CSSC[C@H](NC(=O)CN)C(=O)N[C@@H](CSSC[C@@H](C(N)=O)NC1=O)C(=O)NC(CCN)C(=O)N[C@@H](Cc1cnc[nH]1)C(=O)N1CCC[C@H]1C(=O)N[C@@H](C)C(=O)N2 (stereo not given in full) (H-GCC[ξDab]HPACSVNNPDIC-NH2; disulfide 2-8, 3-16) | > 85% | 
19 | CC[C@H](C)[C@@H]1NC(=O)[C@H](CC(=O)O)NC(=O)[C@@H]2CCCN2C(=O)[C@H](CC(N)=O)NC(=O)[C@H](CC(N)=O)NC(=O)C(CN)NC(=O)[C@H](CO)NC(=O)[C@@H]2CSSC[C@H](NC(=O)CN)C(=O)N[C@@H](CSSC[C@@H](C(N)=O)NC1=O)C(=O)NC(CN)C(=O)N[C@@H](Cc1cnc[nH]1)C(=O)N1CCC[C@H]1C(=O)N[C@@H](C)C(=O)N2 (stereo not given in full) (H-GCC[ξDap]HPACS[ξDap]NNPDIC-NH2; disulfide 2-8, 3-16) | > 95% | 
